Measured values taken from ChEMBL document CHEMBL1201862, “PubChem BioAssay data set” (2004).
Active and inactive are the calls of the source.

How the values were obtained:
[1] = biological target: Botulinum neurotoxin type F (Clostridium botulinum, UniProt P30996); experiment: High-throughput multiplex microsphere dose response for inhibitors of toxin protease, specifically Botulinum neurotoxin light chain F protease, compounds from Cherry Pick 02.; format: functional; conditions: read-out: EC50_MICROM
[2] = biological target: T1, Beta-lactamase (Pseudomonas aeruginosa, UniProt Q79MP6); experiment: […] counterscreen for selective VIM-2 inhibitors: dose response biochemical high throughput screening assay to identify inhibitors of IMP-1 metallo-beta-lactamase.
[3] = biological target: T1, Beta-lactamase; experiment: IMP-1 metallo-beta-lactamase inhibitors, dose response, selectivity assay for VIM-2 inhibitor project, biochemical, epi-absorbance (AID 1920)
[4] = biological target: Beta-lactamase (Salmonella choleraesuis (strain SC-B67), UniProt Q5J463); experiment: Epi-absorbance-based counterscreen for selective VIM-2 inhibitors: dose response biochemical high throughput screening assay to identify inhibitors of TEM-1 serine-beta-lactamase.
[5] = biological target: T2, Beta Lactamase (Pseudomonas aeruginosa, UniProt Q932Y6); experiment: VIM-2 inhibitor FRET-based artefact check, dose response, artefact control for selective VIM-2 inhibitor project, biochemical, FRET readout, CCF2 substrate (AID 1926)
[6] = biological target: T2, Beta Lactamase; experiment: VIM-2 metallo-beta-lactamase inhibitor potency, dose response, biochemical, epi-absorbance readout, selective inhibitors (AID 1919)
[7] = biological target: Protein S100-A4 (Homo sapiens, UniProt P26447); experiment: S100A4-myosin IIA binding inhibitor potency, dose response, biochemical, fluorescence polarization, cherry-picked hits (AID 687001); format: functional
[8] = test system: Vero; experiment: Vero cell cytotoxicity, cytotoxicity control for flavivirus capping enzyme inhibitors (AID 588742); format: functional; conditions: Chlorocebus sabaeus
[9] = biological target: T3, Replicative DNA helicase DnaB (Mycobacterium tuberculosis, UniProt P9WMR3); experiment: DnaB intein splicing inhibitors, dose response, biochemical, cell-free fluorescence (AID 449749); format: functional
T3 sequence (P9WMR3 whole entry): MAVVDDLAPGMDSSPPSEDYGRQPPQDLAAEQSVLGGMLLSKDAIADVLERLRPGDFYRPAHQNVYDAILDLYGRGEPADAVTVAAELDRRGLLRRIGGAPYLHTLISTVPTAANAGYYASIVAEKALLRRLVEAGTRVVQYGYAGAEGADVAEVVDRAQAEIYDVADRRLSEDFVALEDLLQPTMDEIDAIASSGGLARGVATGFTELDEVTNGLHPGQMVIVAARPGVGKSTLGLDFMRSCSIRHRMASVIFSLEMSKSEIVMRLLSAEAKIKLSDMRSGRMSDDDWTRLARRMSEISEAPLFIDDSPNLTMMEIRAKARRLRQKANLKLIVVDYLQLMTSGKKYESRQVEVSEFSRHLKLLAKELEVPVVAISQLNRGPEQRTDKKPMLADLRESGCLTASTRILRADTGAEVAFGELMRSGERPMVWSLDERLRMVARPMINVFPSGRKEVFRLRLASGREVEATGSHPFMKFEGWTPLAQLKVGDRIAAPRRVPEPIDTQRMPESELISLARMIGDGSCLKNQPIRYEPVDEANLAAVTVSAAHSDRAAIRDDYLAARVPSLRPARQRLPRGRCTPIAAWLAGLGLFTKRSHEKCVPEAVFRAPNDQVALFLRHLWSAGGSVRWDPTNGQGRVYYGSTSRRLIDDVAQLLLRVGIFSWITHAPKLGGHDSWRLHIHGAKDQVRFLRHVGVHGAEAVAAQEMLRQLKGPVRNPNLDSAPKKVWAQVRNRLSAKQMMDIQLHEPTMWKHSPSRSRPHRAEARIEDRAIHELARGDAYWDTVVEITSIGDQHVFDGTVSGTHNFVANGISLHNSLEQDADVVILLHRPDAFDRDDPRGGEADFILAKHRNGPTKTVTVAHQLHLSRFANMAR

[10] = biological target: T4, Sentrin-specific protease 8 (Homo sapiens, UniProt Q96LD8); format: functional
T4 sequence (Q96LD8 whole entry): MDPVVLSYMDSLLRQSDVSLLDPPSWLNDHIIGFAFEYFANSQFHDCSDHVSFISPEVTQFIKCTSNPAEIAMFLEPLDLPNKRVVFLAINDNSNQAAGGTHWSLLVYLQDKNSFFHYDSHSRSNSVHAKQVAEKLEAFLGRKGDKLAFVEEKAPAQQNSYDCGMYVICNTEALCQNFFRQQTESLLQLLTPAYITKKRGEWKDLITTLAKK

[11] = biological target: T5, Caspase-3 (Homo sapiens, UniProt P42574); experiment: Dose-response confirmation of uHTS inhibitor hits of Sentrin-Specific Protease 8 in a Caspase-3 Fluorescence assay.; format: functional
T5 sequence (P42574 whole entry): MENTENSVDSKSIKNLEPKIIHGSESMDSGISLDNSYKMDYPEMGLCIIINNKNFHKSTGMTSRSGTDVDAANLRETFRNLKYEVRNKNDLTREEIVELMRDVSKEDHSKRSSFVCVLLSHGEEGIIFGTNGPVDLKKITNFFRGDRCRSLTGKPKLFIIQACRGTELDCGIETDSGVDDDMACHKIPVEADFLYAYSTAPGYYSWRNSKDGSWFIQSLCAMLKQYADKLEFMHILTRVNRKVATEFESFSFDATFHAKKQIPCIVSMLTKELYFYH

[12] = biological target: T4, Sentrin-specific protease 8; format: functional; remark: listed apart in the source
[13] = biological target: T6, Protein RecA (Mycobacterium tuberculosis, UniProt P9WHJ3); experiment: Fluorescence Cell-Free Homogeneous Dose Retest to Identify Inhibitors of RecA-Intein Splicing Activity. [Related pubchem assays (depositor defined):AID2097, AID2223, AID489010, AID492950]; format: functional
T6 sequence (P9WHJ3 whole entry): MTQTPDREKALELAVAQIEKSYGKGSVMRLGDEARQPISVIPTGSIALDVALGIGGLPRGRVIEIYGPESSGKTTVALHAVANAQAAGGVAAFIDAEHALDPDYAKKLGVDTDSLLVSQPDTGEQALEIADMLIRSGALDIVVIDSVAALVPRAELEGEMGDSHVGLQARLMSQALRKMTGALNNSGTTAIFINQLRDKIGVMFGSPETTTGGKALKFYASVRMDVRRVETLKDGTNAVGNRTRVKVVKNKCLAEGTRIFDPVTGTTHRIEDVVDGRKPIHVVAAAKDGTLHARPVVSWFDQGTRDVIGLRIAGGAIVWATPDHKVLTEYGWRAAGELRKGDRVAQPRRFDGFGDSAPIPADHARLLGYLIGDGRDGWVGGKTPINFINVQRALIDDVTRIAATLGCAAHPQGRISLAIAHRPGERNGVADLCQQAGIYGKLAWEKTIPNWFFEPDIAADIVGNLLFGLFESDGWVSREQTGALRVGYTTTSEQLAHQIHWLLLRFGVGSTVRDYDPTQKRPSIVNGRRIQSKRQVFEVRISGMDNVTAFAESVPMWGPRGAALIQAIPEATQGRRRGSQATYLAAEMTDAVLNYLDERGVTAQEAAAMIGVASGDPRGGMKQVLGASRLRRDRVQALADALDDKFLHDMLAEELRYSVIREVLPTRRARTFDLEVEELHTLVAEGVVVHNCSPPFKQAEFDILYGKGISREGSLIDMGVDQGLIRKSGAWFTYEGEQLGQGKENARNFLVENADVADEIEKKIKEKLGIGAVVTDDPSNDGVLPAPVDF

[14] = Late stage assay provider results from the probe development effort to identify inhibitors of the Plasmodium falciparum M17 Leucine Aminopeptidase (M17LAP): radiolabel-based cell-based dose response assay to identify compounds that inhibit P. falciparum growth in RBCs Set 2.; format: functional
[15] = T. cruzi intracellular amastigote growth inhibition, dose response, imaging, CA-I/72 strain, bovine embryo skeletal muscle, dry powder (AID 651885); format: functional, cell-based

T1 sequence (Q79MP6 whole entry): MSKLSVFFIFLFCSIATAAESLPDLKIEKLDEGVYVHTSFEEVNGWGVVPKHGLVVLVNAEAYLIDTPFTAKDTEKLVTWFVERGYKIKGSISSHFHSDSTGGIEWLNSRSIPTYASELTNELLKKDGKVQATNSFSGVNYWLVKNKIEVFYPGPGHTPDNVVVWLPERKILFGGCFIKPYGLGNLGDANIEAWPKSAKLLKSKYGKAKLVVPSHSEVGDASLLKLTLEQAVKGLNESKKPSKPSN
T2 sequence (Q932Y6 whole entry): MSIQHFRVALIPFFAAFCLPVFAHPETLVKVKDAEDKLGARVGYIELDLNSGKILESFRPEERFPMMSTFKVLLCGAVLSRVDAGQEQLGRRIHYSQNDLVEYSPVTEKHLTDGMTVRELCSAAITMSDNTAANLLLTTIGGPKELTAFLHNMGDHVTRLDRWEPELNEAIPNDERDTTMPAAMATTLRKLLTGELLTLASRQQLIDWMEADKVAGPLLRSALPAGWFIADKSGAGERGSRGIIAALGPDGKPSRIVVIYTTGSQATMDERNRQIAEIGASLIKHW
Protein S100-A4, sequence (P26447 whole entry): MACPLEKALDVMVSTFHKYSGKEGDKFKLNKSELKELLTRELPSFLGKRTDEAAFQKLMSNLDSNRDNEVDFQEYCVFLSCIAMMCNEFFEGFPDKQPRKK
Botulinum neurotoxin type F, sequence (P30996 1-436 limits assumed): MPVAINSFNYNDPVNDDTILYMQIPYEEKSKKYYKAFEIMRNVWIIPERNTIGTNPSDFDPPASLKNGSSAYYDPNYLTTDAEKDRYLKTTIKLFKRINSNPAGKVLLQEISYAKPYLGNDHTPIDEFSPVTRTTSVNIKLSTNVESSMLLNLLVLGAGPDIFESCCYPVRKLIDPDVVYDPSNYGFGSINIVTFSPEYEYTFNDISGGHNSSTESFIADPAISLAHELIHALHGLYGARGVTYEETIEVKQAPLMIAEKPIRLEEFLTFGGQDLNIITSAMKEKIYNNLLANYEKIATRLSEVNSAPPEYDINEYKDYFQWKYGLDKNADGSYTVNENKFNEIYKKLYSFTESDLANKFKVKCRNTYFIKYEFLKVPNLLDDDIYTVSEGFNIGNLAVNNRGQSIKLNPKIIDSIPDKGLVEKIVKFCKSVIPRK
Beta-lactamase (Salmonella choleraesuis (strain SC-B67), UniProt Q5J463), sequence (Q5J463 whole entry): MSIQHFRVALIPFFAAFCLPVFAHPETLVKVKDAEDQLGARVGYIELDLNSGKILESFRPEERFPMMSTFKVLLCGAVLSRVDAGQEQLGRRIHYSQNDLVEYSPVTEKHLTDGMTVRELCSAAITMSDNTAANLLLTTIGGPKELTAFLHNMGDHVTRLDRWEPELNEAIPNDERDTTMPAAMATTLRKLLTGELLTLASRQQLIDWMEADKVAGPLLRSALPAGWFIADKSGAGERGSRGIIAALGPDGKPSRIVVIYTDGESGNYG

For `COc1cccc(C(=O)OCC(=O)c2c[nH]c3ccccc23)c1O`, the EC50 [1] was > 20 µM (inactive).

For `O=C(C1=C(O)C(=O)N(Cc2cccnc2)C1c1ccccn1)c1cccs1` (stereo not given), the IC50 [2] was > 59.6 µM (inactive), the IC50 [3] was > 59.6 µM (inactive) and the IC50 [4] was > 59.6 µM (inactive). For the same compound, the IC50 [5] was 4.83 µM (active) and the IC50 [6] was 13.2 µM (inactive).

With `CN(C)c1ccc(C=Cc2nccc3ccccc23)cc1` the AC50 [7] was 0.774 µM (active).

In the case of `COc1ccc(/C=N/NC(=O)c2nn(-c3ccc(Cl)cc3)c(=O)c3c(N)scc23)cc1`, the CC50 [8] is reported as 22 µM (active), the AC50 [9] is reported as > 380 µM (inactive) and the IC50 [10] is reported as 2.03 µM (active). For the same compound, the IC50 [11] was 11.9 µM (active), the IC50 [12] was 0.967 µM (active) and the EC50 [13] was 4.62 µM (active).

In the case of `CCCCOc1ccc(CN(O)C(=O)c2ccccc2)cc1`, the IC50 [14] is reported as 13.6 µM (inactive).

For `CNC[C@H]1Oc2c(NC(=O)c3ccccc3)cccc2C(=O)N(C(C)C)C[C@@H]1C`, the IC50 [15] was > 20 µM (inactive).
